The CheMixHub ionic liquid set

Assay: xn = mol fraction of the nth substance listed

OCCN(CCO)CCO + CCOS(=O)(=O)[O-].CC[n+]1ccn(C)c1
100 kPa
Conditions | electrical conductivity [S/m] | viscosity [mPa·s]
293.15 K, x1 = 0.153 | – | 126.2
293.15 K, x1 = 0.617 | – | 159.3
293.15 K, x1 = 0.967 | – | 714
298.15 K, x1 = 0.787 | 0.0457 | 202.4
298.15 K, x1 = 0.929 | 0.0087 | 395
298.15 K, x1 = 0.967 | 0.00372 | 478
298.15 K, x2 = 0.003 | 0.000422 | –
298.15 K, x2 = 0.006 | 0.00076 | –
298.15 K, x2 = 0.019 | 0.00206 | –
303.15 K, x1 = 0.617 | – | 89
303.15 K, x1 = 0.866 | – | 203.4
303.15 K, x1 = 0.929 | – | 274.8
303.15 K, x1 = 0.967 | – | 328
303.15 K, x2 = 0.006 | – | 389
313.15 K, x1 = 0.153 | 0.66 | 50.4
313.15 K, x2 = 0.003 | 0.00117 | –
313.15 K, x2 = 0.006 | 0.00211 | –

CC[NH3+].O=[N+]([O-])[O-] + CC[N+](CC)(CC)CC.O=[N+]([O-])[O-]
Conditions | viscosity [mPa·s]
338.15 K, 101 kPa, x2 = 0 | 12.5

CC[NH3+].O=[N+]([O-])[O-] + CC[NH2+]CC.O=[N+]([O-])[O-]
Conditions | electrical conductivity [S/m]
323.15 K, 101 kPa, frequency 0.00293 MHz, x2 = 0 | 4.22

101 kPa, x2 = 0
Conditions | viscosity [mPa·s]
323.15 K | 17.6
333.15 K | 13.8

CC[NH3+].O=[N+]([O-])[O-] + CC[NH+](CC)CC.O=[N+]([O-])[O-]
101 kPa, frequency 0.00293 MHz, x2 = 0
Conditions | electrical conductivity [S/m]
293.15 K | 1.93
298.15 K | 2.25
313.15 K | 3.37
323.15 K | 4.22

101 kPa, x2 = 0
Conditions | viscosity [mPa·s]
293.15 K | 43.5
298.15 K | 36.5
313.15 K | 22.8
323.15 K | 17.6

CC[n+]1ccn(C)c1.N#C[S-] + CC[n+]1ccn(C)c1.CS(=O)(=O)[O-] + O
100 kPa, x1 = 1, x2 = 0
Conditions | viscosity [mPa·s]
298.15 K | 23.91
323.15 K | 11.7

CC[n+]1ccn(C)c1.N#C[S-] + CC[n+]1ccn(C)c1.N#C[N-]C#N
100 kPa, x1 = 1
Conditions | electrical conductivity [S/m] | viscosity [mPa·s]
318.15 K | 3.92 | 12.98
328.15 K | – | 10.25
338.15 K | – | 8.3
343.15 K | – | 7.53

CC[S+](CC)CCOCCOCCOCC[S+](CC)CC.O=S(=O)([N-]S(=O)(=O)C(F)(F)F)C(F)(F)F.O=S(=O)([N-]S(=O)(=O)C(F)(F)F)C(F)(F)F + CC[n+]1ccn(C)c1.N#C[N-]C#N + O=S(=O)([N-]S(=O)(=O)C(F)(F)F)C(F)(F)F.[Li+]
100 kPa, x1 = 0.1475, x2 = 0.7497
Conditions | electrical conductivity [S/m]
298 K | 0.673
303 K | 0.826
313 K | 1.15
323 K | 1.46
333 K | 1.79
343 K | 2.05

CC[S+](CC)CCOCCOCC[S+](CC)CC.O=S(=O)([N-]S(=O)(=O)C(F)(F)F)C(F)(F)F.O=S(=O)([N-]S(=O)(=O)C(F)(F)F)C(F)(F)F + CC[n+]1ccn(C)c1.N#C[N-]C#N + O=S(=O)([N-]S(=O)(=O)C(F)(F)F)C(F)(F)F.[Li+]
100 kPa, x1 = 0.1539, x2 = 0.744
Conditions | electrical conductivity [S/m]
298 K | 0.615
303 K | 0.691
313 K | 0.953
323 K | 1.22
333 K | 1.57
343 K | 1.93

C[N+]1(CCOCCOCCOCCOCC[N+]2(C)CCCC2)CCCC1.N#C[N-]C#N.N#C[N-]C#N + CC[n+]1ccn(C)c1.N#C[N-]C#N + O=S(=O)([N-]S(=O)(=O)C(F)(F)F)C(F)(F)F.[Li+]
100 kPa, x1 = 0.2352, x2 = 0.6725
Conditions | electrical conductivity [S/m]
298 K | 0.37
303 K | 0.435
313 K | 0.646
323 K | 0.941
333 K | 1.2
343 K | 1.51

C[N+]1(CCOCCOCC[N+]2(C)CCCC2)CCCC1.N#C[N-]C#N.N#C[N-]C#N + CC[n+]1ccn(C)c1.N#C[N-]C#N + O=S(=O)([N-]S(=O)(=O)C(F)(F)F)C(F)(F)F.[Li+]
electrical conductivity [S/m], 100 kPa
Conditions | 298 K | 303 K | 313 K | 323 K | 333 K | 343 K
x1 = 0.2606, x2 = 0.6156 | 0.561 | 0.658 | 0.963 | 1.27 | 1.61 | 1.94
x1 = 0.2713, x2 = 0.6408 | 0.911 | 1.01 | 1.37 | 1.71 | 2.12 | 2.54

C[N+]1(CCOCC[N+]2(C)CCCC2)CCCC1.N#C[N-]C#N.N#C[N-]C#N + CC[n+]1ccn(C)c1.N#C[N-]C#N + O=S(=O)([N-]S(=O)(=O)C(F)(F)F)C(F)(F)F.[Li+]
100 kPa, x1 = 0.2938, x2 = 0.621
Conditions | electrical conductivity [S/m]
298 K | 0.622
303 K | 0.76
313 K | 1.04
323 K | 1.38
333 K | 1.76
343 K | 2.24

COC(=O)OC + CC[n+]1ccn(C)c1.O=S(=O)([N-]S(=O)(=O)C(F)(F)F)C(F)(F)F
101.3 kPa, x2 = 0
Conditions | viscosity [mPa·s]
288.15 K | 0.668
293.15 K | 0.628
298.15 K | 0.588
303.15 K | 0.553
308.15 K | 0.524

C[N+]1(CCOCCOCC[N+]2(C)CCCC2)CCCC1.N#C[N-]C#N.N#C[N-]C#N + CC[n+]1ccn(C)c1.O=S(=O)([N-]S(=O)(=O)C(F)(F)F)C(F)(F)F + O=S(=O)([N-]S(=O)(=O)C(F)(F)F)C(F)(F)F.[Li+]
100 kPa, x1 = 0.4178, x2 = 0.4469
Conditions | electrical conductivity [S/m]
298 K | 0.244
303 K | 0.317
313 K | 0.431
323 K | 0.64
333 K | 0.832
343 K | 1.1

CC[n+]1ccn(C)c1.N#C[S-] + CC[n+]1ccn(C)c1.O=S(=O)([O-])C(F)(F)F
Conditions | viscosity [mPa·s]
293 K, 100 kPa, x1 = 0.5 | 36.4

OCCN(CCO)CCO + CC[n+]1ccn(C)c1.O=S(=O)([O-])C(F)(F)F
100 kPa
Conditions | electrical conductivity [S/m] | viscosity [mPa·s]
293.15 K, x1 = 0.084 | – | 52.9
298.15 K, x1 = 0.426 | 0.357 | 65.6
298.15 K, x1 = 0.539 | 0.232 | 87.6
298.15 K, x1 = 0.875 | 0.019 | 320
298.15 K, x1 = 0.969 | 0.00321 | –
298.15 K, x2 = 0.003 | 0.000411 | –
298.15 K, x2 = 0.006 | 0.00071 | –
298.15 K, x2 = 0.017 | 0.00188 | –
303.15 K, x1 = 0.084 | – | 36.1
303.15 K, x1 = 0.167 | – | 37
303.15 K, x1 = 0.641 | – | 87.1
303.15 K, x2 = 0.006 | – | 400
313.15 K, x1 = 0.167 | 1.19 | 26
313.15 K, x1 = 0.723 | 0.185 | 65.8
313.15 K, x2 = 0.003 | 0.00117 | –
313.15 K, x2 = 0.006 | 0.00204 | 198.3
